Measured values: PubChem BioAssay (NCI)
Values joined by “and” are separate entries in the source; they are usually repeats but may differ in a detail not shown here. Equal entries are not always repeated.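 Five compound concentrations were applied to cells in 96-well plates for 48 hours; endpoints were derived by simple linear interpolation of the resulting dose-response curve. GI50 = concentration required for 50% inhibition of growth. TGI is the concentration that stops growth completely.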

Legend:
Assay in all cases: NCI tumour cell line growth inhibition, 48 h
[1] = system: M19-MEL melanoma
[2] = system: RXF-631 renal
[3] = system: LXFL 529 NSCLC
[4] = system: DMS 114 small cell lung
[5] = system: KM20L2 colon
[6] = system: XF 498 CNS
[7] = system: SNB-78 CNS
[8] = system: HOP-18 NSCLC
[9] = system: SN12K1 renal
[10] = system: P388/ADR leukemia
[11] = system: P388 leukemia

Q: What does the source list for `COC(=O)C(=Cc1cc(OC)c(OC)c(OC)c1-c1cc2c(cc1C1(C)OCCS1)OCO2)C(=O)OC` (stereo not drawn)?
A: TGI [1]: > 100 µM; TGI [2]: > 100 µM; TGI [3]: > 100 µM; TGI [4]: > 100 µM; TGI [5]: > 100 µM

Q: Which results are given for `CSc1nc(SC)c2c(C#N)[nH]nc2n1`?
A: TGI [1]: > 100 µM; TGI [2]: > 100 µM; TGI [6]: > 100 µM; TGI [7]: > 100 µM; TGI [4]: > 100 µM; TGI [5]: > 100 µM

Q: With `CCCCCCCCCCCCCCCCNc1cccc2ccccc12` as the compound, how does the TGI [1] read?
A: > 100 µM

Q: And the TGI [3]?
A: > 100 µM

Q: And the TGI [7]?
A: > 100 µM

Q: And the TGI [4]?
A: > 100 µM

Q: And the TGI [5]?
A: > 100 µM

Q: Which TGI [1] does the source give for `O=C1CCC(c2ccccc2)=NN1c1nsc2ccccc12` here?
A: > 100 µM

Q: What about the TGI [8] of the same compound?
A: > 100 µM

Q: And the TGI [3]?
A: > 100 µM

Q: What about the TGI [7] of the same compound?
A: > 100 µM

Q: What about the TGI [4] of the same compound?
A: > 100 µM

Q: What about the TGI [5] of the same compound?
A: > 100 µM

Q: `COc1cc(OC)c2c(=O)cc(-c3ccc(OC)c(OC)c3OC)oc2c1` was tested. Which TGI [1] did it give?
A: > 100 µM

Q: And the TGI [3]?
A: > 100 µM

Q: What about the TGI [6] of the same compound?
A: > 100 µM

Q: And the TGI [4]?
A: > 100 µM

Q: What about the TGI [5] of the same compound?
A: > 100 µM

Q: How did the TGI [1] turn out when `CC(O)CNC(=O)C(C)Oc1ccc(OCC2CCCCC2)cc1` (stereo not drawn) was run?
A: > 100 µM

Q: And the TGI [8]?
A: > 100 µM

Q: And the TGI [3]?
A: > 100 µM

Q: What about the TGI [6] of the same compound?
A: > 100 µM

Q: What about the TGI [7] of the same compound?
A: > 100 µM

Q: What about the TGI [4] of the same compound?
A: > 100 µM

Q: How did the TGI [1] turn out when `CCOC(=O)N1CCC(N[C@@H]2c3cc4c(cc3C(c3cc(OC)c(O)c(OC)c3)C3C(=O)OC[C@@H]32)OCO4)CC1` (stereo partly drawn) was run?
A: 12.8 µM and 10.2 µM

Q: What about the TGI [3] of the same compound?
A: 21.4 µM and > 25 µM

Q: What about the TGI [7] of the same compound?
A: 50 µM and > 25 µM

Q: What about the GI50 [4] of the same compound?
A: 1.9 µM and 0.747 µM

Q: What about the TGI [4] of the same compound?
A: 12.4 µM and 4.81 µM

Q: And the GI50 [5]?
A: 2.16 µM and 4.5 µM

Q: What about the TGI [5] of the same compound?
A: 14.5 µM and 15.6 µM

Q: For `COc1cc2c(cc1OC)C(C(c1ccccc1)c1ccccc1)N(C)CC2` (stereo not drawn), which TGI [1] is on record?
A: > 100 µM

Q: And the TGI [9]?
A: > 65.6 µM

Q: What about the TGI [10] of the same compound?
A: > 100 µM

Q: What about the TGI [11] of the same compound?
A: > 100 µM

Q: What about the TGI [8] of the same compound?
A: > 100 µM

Q: What about the TGI [6] of the same compound?
A: 97.8 µM

Q: And the TGI [7]?
A: > 100 µM

Q: And the TGI [4]?
A: > 100 µM

Q: And the TGI [5]?
A: > 73.7 µM

Q: How did the TGI [1] turn out when `COc1cccc(N2C(Cl)C(=O)C2c2c[nH]c3ccccc23)c1` (stereo not drawn) was run?
A: > 100 µM

Q: What about the TGI [3] of the same compound?
A: > 100 µM

Q: And the TGI [6]?
A: > 100 µM

Q: What about the TGI [4] of the same compound?
A: > 100 µM

Q: And the TGI [5]?
A: > 100 µM

Q: What does the source list for `O=C1OCC/C1=N/O`?
A: TGI [1]: > 100 µM; TGI [8]: > 100 µM; TGI [3]: > 100 µM; TGI [7]: > 100 µM; TGI [4]: > 100 µM; TGI [5]: > 100 µM

Q: How did the TGI [1] turn out when `COc1ccc(CCN(C)C2CCC(C#N)(c3ccc(OC)c(OC)c3)CC2)cc1OC` (stereo not drawn) was run?
A: > 100 µM

Q: And the TGI [2]?
A: > 100 µM

Q: And the TGI [8]?
A: > 100 µM

Q: And the TGI [3]?
A: > 100 µM

Q: And the TGI [6]?
A: > 100 µM

Q: What about the TGI [5] of the same compound?
A: > 100 µM

Q: For `On1c(-c2ccccc2)c(-c2ccccc2N2CCCC2)c2ccccc21`, which TGI [1] is on record?
A: > 100 µM

Q: What about the TGI [8] of the same compound?
A: > 100 µM

Q: What about the TGI [6] of the same compound?
A: > 100 µM

Q: And the TGI [7]?
A: > 100 µM

Q: What about the TGI [4] of the same compound?
A: > 100 µM

Q: And the TGI [5]?
A: > 100 µM

Q: With `Cc1c2cc[n+](C)c(C)c2cc2c1[nH]c1ccccc12` as the compound, how does the TGI [1] read?
A: 11.9 µM

Q: And the TGI [9]?
A: 16.8 µM

Q: What about the TGI [10] of the same compound?
A: > 100 µM

Q: And the TGI [11]?
A: 86.6 µM

Q: And the TGI [8]?
A: 11.8 µM

Q: What about the TGI [7] of the same compound?
A: 72.2 µM

Q: And the TGI [4]?
A: 10.4 µM

Q: What about the TGI [5] of the same compound?
A: 44.5 µM

Q: How did the TGI [1] turn out when `CCCCCCCCCCCC[S+](C)C` was run?
A: 6.45 µM

Q: And the TGI [9]?
A: 18.8 µM

Q: And the TGI [10]?
A: > 100 µM

Q: What about the TGI [11] of the same compound?
A: 3.1 µM

Q: And the TGI [8]?
A: 14.9 µM

Q: What about the TGI [6] of the same compound?
A: 6.71 µM

Q: What about the TGI [7] of the same compound?
A: 26.6 µM

Q: What about the TGI [4] of the same compound?
A: 13.4 µM

Q: And the TGI [5]?
A: 20.9 µM

Q: `C[N+](C)([O-])CCOc1cc2c(c3ccccc13)-c1ccccc1C2=O` was tested. Which TGI [1] did it give?
A: 36.2 µM

Q: What about the TGI [9] of the same compound?
A: 37.8 µM

Q: What about the TGI [10] of the same compound?
A: > 45.2 µM

Q: And the TGI [11]?
A: > 100 µM

Q: What about the TGI [8] of the same compound?
A: > 100 µM

Q: And the TGI [6]?
A: 37.9 µM

Q: And the TGI [7]?
A: > 91.1 µM

Q: What about the TGI [4] of the same compound?
A: 24.7 µM

Q: What about the TGI [5] of the same compound?
A: > 63.5 µM
